The target in assay [1] is T1, human B1R receptor (bradykinin 1 receptor) (Homo sapiens, UniProt P46663).
T1 construct: host or cells: CHO K1 cells (hB1R cells)
T1 sequence (P46663 1-353): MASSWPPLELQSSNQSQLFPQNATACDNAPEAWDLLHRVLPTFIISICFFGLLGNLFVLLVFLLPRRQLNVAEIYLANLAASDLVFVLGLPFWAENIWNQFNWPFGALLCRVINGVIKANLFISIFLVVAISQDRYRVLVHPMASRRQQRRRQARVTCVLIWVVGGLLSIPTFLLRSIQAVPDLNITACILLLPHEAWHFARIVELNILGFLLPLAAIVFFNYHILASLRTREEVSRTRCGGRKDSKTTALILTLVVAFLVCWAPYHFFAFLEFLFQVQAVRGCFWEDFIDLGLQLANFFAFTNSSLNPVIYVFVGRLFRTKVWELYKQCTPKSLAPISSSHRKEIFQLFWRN
In words: FLIPR Ca2+ assay (Fluo-4) on CHO K1 cells stably transfected with the human B1R gene; % activation and % inhibition at 10 μM. It is filed as cell-based. Conditions: CHO-K1, test substance 10 μM; CHO K1 hB1R cells; Ca2+ inflow after 0.5 nM Lys-Des-Arg9-bradykinin; read-out: B1R antagonism, human [10 μM] % inhibition. The procedure, abridged: (§1)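 Fluo-4 Ca2+ flux on FLIPR in stable hB1R or rB1R CHO K1 lines, two additions. Agonism: 10 µM compound versus 0.5 nM Lys-Des-Arg9-BK (human) or 100 nM Des-Arg9-BK (rat); antagonism: same agonists applied 10 min later, suppression expressed against maximum achievable inhibition.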

Assay [2] has as its target T2, B1R receptor of the rat (bradykinin 1 receptor) (Rattus norvegicus, UniProt P97583).
T2 construct: host or cells: CHO K1 cells (rB1R cells)
T2 sequence (P97583 1-337): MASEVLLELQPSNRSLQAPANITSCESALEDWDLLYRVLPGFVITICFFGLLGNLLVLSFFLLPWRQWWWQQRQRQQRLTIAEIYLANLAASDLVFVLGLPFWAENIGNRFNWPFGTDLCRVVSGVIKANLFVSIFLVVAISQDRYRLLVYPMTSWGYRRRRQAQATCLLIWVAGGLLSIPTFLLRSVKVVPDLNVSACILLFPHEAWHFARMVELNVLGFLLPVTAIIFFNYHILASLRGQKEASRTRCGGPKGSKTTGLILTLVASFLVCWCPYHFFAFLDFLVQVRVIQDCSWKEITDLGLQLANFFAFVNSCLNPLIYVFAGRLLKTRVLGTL
Description: FLIPR Ca2+ assay (Fluo-4) on CHO K1 cells stably transfected with the B1R gene of the rat; % activation and % inhibition at 10 μM. It is filed as cell-based. The conditions noted are these: CHO-K1, test substance 10 μM; CHO K1 rB1R cells; Ca2+ inflow after 100 nM Des-Arg9-bradykinin; read-out: B1R antagonism, rat [10 μM] % inhibition. The procedure, abridged: as §1

This note sets out measurements from patent US8580965B2, “Substituted sulfonamide compounds” (Gruenenthal GmbH, priority 2006, dated 2013).

Structures can show the parent of a compound that is named as a salt.

Broadly, the inhibition is the drop in the measured response relative to a control, in per cent. In the case of `COc1cc(C)c(S(=O)(=O)N(CCOCC(=O)N2CCC(O)(c3cccnc3)CC2)Cc2ccccc2)c(C)c1` [Example 130, N-benzyl-N-(2-(2-(4-hydroxy-4-(pyridin-3-yl)piperidin-1-yl)-2-oxoethoxy)ethyl)-4-methoxy-2,6-dimethylphenylsulfonamide], the inhibition at 10 µM in assay [1] stood at 103%; in assay [2], 98.6%.
Turning to `O=C(COCC1Cc2ccccc2CN1S(=O)(=O)c1ccc(Cl)cc1Cl)N1CCC(O)(c2cccnc2)CC1` (centres unmarked) [Example 131, 2-((2-(2,4-dichlorophenylsulfonyl)-1,2,3,4-tetrahydroisoquinolin-3-yl)methoxy)-1-(4-hydroxy-4-(pyridin-3-yl)piperidin-1-yl)ethanone hydrochloride], the inhibition at 10 µM worked out at 102% in assay [1] and 100% in assay [2].
Taken in the same sequence, the figures for `COc1cc(C)c(S(=O)(=O)N(C)CCOCC(=O)N2CCC(O)(c3cccc(C(F)(F)F)c3)CC2)c(C)c1` [Example 132, N-(2-(2-(4-hydroxy-4-(3-(trifluoromethyl)phenyl)piperidin-1-yl)-2-oxoethoxy)ethyl)-4-methoxy-N,2,6-trimethylphenylsulfonamide] were 101% and 99.1%.
In the same order, the values of `COc1cc(C)c(S(=O)(=O)N(C)CCOCCC(=O)N2CCC(O)(c3cccnc3)CC2)c(C)c1` [Example 133, N-(2-(3-(4-hydroxy-4-(pyridin-3-yl)piperidin-1-yl)-3-oxopropoxy)ethyl)-4-methoxy-N,2,6-trimethylphenylsulfonamide] are 84.1% and 96.1%.
Taken in the same sequence, the figures for `COc1ccc(S(=O)(=O)N2Cc3ccccc3C[C@H]2COCC(=O)N2CCC(O)(c3cccnc3)CC2)cc1` [Example 134, (S)-1-(4-hydroxy-4-(pyridin-3-yl)piperidin-1-yl)-2-((2-(4-methoxyphenylsulfonyl)-1,2,3,4-tetrahydroisoquinolin-3-yl)methoxy)ethanone] were 66% and 29.1%.
`O=C(COCC1Cc2ccccc2N1S(=O)(=O)c1ccc(Cl)cc1Cl)N1CCC(O)(c2cccnc2)CC1` (centres unmarked) [Example 135, 2-((1-(2,4-dichlorophenylsulfonyl)indolin-2-yl)methoxy)-1-(4-hydroxy-4-(pyridin-3-yl)piperidin-1-yl)ethanone]: the figures for the inhibition at 10 µM in assay [1] and in assay [2] were 99.8% and 100%, respectively.
For the compound `COc1cc(C)c(S(=O)(=O)N(C)CCOCC(=O)N2CCC(O)(c3ccc(Cl)cc3)CC2)c(C)c1` [Example 136, N-(2-(2-(4-(4-chlorophenyl)-4-hydroxypiperidin-1-yl)-2-oxoethoxy)ethyl)-4-methoxy-N,2,6-trimethylphenylsulfonamide], the inhibition at 10 µM was determined as 93.6% in assay [1] and 95.3% in assay [2].
In the same order, the values of `COc1cc(C)c(S(=O)(=O)N(C)CCOCC(=O)N2CCC(O)(c3ccccc3)CC2)c(C)c1` [Example 137, N-(2-(2-(4-hydroxy-4-phenylpiperidin-1-yl)-2-oxoethoxy)ethyl)-4-methoxy-N,2,6-trimethylphenylsulfonamide] are 101% and 99.3%.
Taken in the same sequence, the figures for `COc1cc(C)c(S(=O)(=O)N2CCCCC2COCC(=O)N2CCC(O)(c3ccccn3)CC2)c(C)c1` (centres unmarked) [Example 138, 1-(4-hydroxy-4-(pyridin-2-yl)piperidin-1-yl)-2-((1-(4-methoxy-2,6-dimethylphenylsulfonyl)piperidin-2-yl)methoxy)ethanone] were 102% and 99.6%.
On to `COc1cc(C)c(S(=O)(=O)N(CCOCC(=O)N2CCC(O)(c3cccnc3)CC2)C2CC2)c(C)c1` [Example 139, N-cyclopropyl-N-(2-(2-(4-hydroxy-4-(pyridin-3-yl)piperidin-1-yl)-2-oxoethoxy)ethyl)-4-methoxy-2,6-dimethylphenylsulfonamide], for which the results for the inhibition at 10 µM in assay [1] and in assay [2] were 104% and 101%, respectively.
